According to article PMC4490784, “Compensatory induction of MYC expression by sustained CDK9 inhibition via a BRD4-dependent mechanism” (eLife, 2015):

What was measured:
Experiment in all cases: KINOMEscan binding assay
ITK = molecular target: T1, ITK (Homo sapiens, UniProt Q08881)
T1 construct: purchased DiscoveRx KINOMEscan
Outline: (§1)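 Active site-directed competition binding measured kinase engagement within a panel of over 400 kinases. i-CDK9 was tested at two concentrations, 1 and 10 µM.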

[1] = molecular target: T2, ABL1(F317L)-nonphosphorylated (Homo sapiens, UniProt P00519, F317L); conditions: read-out: % Retention on Solid Support
T2 construct: purchased DiscoveRx KINOMEscan
Outline: as §1

[2] = molecular target: T3, RPS6KA5(Kin.Dom.1-N-terminal) (Homo sapiens, UniProt O75582); conditions: read-out: % Retention on Solid Support
T3 construct: RPS6KA5(Kin.Dom.1-N-terminal); purchased DiscoveRx KINOMEscan
Outline: as §1

CSNK1A1L = molecular target: T4, CSNK1A1L (Homo sapiens, UniProt Q8N752); conditions: read-out: % Retention on Solid Support
T4 construct: purchased DiscoveRx KINOMEscan
Outline: as §1

DMPK2 = molecular target: T5, DMPK2 (Homo sapiens, UniProt Q6DT37); conditions: read-out: % Retention on Solid Support
T5 construct: purchased DiscoveRx KINOMEscan
Outline: as §1

DYRK1B = molecular target: T6, DYRK1B (Homo sapiens, UniProt Q9Y463); conditions: read-out: % Retention on Solid Support
T6 construct: purchased DiscoveRx KINOMEscan
Outline: as §1

MAP3K15 = molecular target: T7, MAP3K15 (Homo sapiens, UniProt Q6ZN16); conditions: read-out: % Retention on Solid Support
T7 construct: purchased DiscoveRx KINOMEscan
Outline: as §1

FYN = molecular target: T8, FYN (Homo sapiens, UniProt P06241); conditions: read-out: % Retention on Solid Support
T8 construct: purchased DiscoveRx KINOMEscan
Outline: as §1

CSNK2A1 = molecular target: T9, CSNK2A1 (Homo sapiens, UniProt P68400); conditions: read-out: % Retention on Solid Support
T9 construct: purchased DiscoveRx KINOMEscan
Outline: as §1

MARK4 = molecular target: T10, MARK4 (Homo sapiens, UniProt Q96L34)
T10 construct: purchased DiscoveRx KINOMEscan
Outline: as §1

CAMK2D = molecular target: T11, CAMK2D (Homo sapiens, UniProt Q13557); conditions: read-out: % Retention on Solid Support
T11 construct: purchased DiscoveRx KINOMEscan
Outline: as §1

TNNI3K = molecular target: T12, TNNI3K (Homo sapiens, UniProt Q59H18); conditions: read-out: % Retention on Solid Support
T12 construct: purchased DiscoveRx KINOMEscan
Outline: as §1

[3] = molecular target: T13, ABL1(M351T)-phosphorylated (Homo sapiens, UniProt P00519, M351T); conditions: 1 µM i-CDK9; read-out: % Retention on Solid Support
T13 construct: purchased DiscoveRx KINOMEscan
Outline: as §1

ERBB4 = molecular target: T14, ERBB4 (Homo sapiens, UniProt Q15303); conditions: read-out: % Retention on Solid Support
T14 construct: purchased DiscoveRx KINOMEscan
Outline: as §1

MEK6 = molecular target: T15, MEK6 (Homo sapiens, UniProt P52564); conditions: read-out: % Retention on Solid Support
T15 construct: purchased DiscoveRx KINOMEscan
Outline: as §1

ULK1 = molecular target: T16, ULK1 (Homo sapiens, UniProt O75385)
T16 construct: purchased DiscoveRx KINOMEscan
Outline: as §1

EPHA6 = molecular target: T17, EPHA6 (Homo sapiens, UniProt Q9UF33); conditions: read-out: % Retention on Solid Support
T17 construct: purchased DiscoveRx KINOMEscan
Outline: as §1

FLT4 = molecular target: T18, FLT4 (Homo sapiens, UniProt P35916); conditions: read-out: % Retention on Solid Support
T18 construct: purchased DiscoveRx KINOMEscan
Outline: as §1

PRP4 = molecular target: T19, PRP4 (Homo sapiens, UniProt Q13523); conditions: read-out: % Retention on Solid Support
T19 construct: purchased DiscoveRx KINOMEscan
Outline: as §1

CTK = molecular target: T20, CTK (Homo sapiens, UniProt P42679); conditions: read-out: % Retention on Solid Support
T20 construct: purchased DiscoveRx KINOMEscan
Outline: as §1

GRK1 = molecular target: T21, GRK1 (Homo sapiens, UniProt Q15835); conditions: read-out: % Retention on Solid Support
T21 construct: purchased DiscoveRx KINOMEscan
Outline: as §1

MST4 = molecular target: T22, MST4 (Homo sapiens, UniProt Q9P289); conditions: read-out: % Retention on Solid Support
T22 construct: purchased DiscoveRx KINOMEscan
Outline: as §1

MET(Y1235D) = molecular target: T23, MET(Y1235D) (Homo sapiens, UniProt P08581, Y1235D)
T23 construct: purchased DiscoveRx KINOMEscan
Outline: as §1

IKK-alpha = molecular target: T24, IKK-alpha (Homo sapiens, UniProt O15111); conditions: read-out: % Retention on Solid Support
T24 construct: purchased DiscoveRx KINOMEscan
Outline: as §1

BMX = molecular target: T25, BMX (Homo sapiens, UniProt P51813); conditions: read-out: % Retention on Solid Support
T25 construct: purchased DiscoveRx KINOMEscan
Outline: as §1

[4] = molecular target: T26, RSK4(Kin.Dom.2-C-terminal) (Homo sapiens, UniProt Q9UK32)
T26 construct: RSK4(Kin.Dom.2-C-terminal); purchased DiscoveRx KINOMEscan
Outline: as §1

ULK2 = molecular target: T27, ULK2 (Homo sapiens, UniProt Q8IYT8); conditions: read-out: % Retention on Solid Support
T27 construct: purchased DiscoveRx KINOMEscan
Outline: as §1

PAK3 = molecular target: T28, PAK3 (Homo sapiens, UniProt O75914); conditions: read-out: % Retention on Solid Support
T28 construct: purchased DiscoveRx KINOMEscan
Outline: as §1

PRKD2 = molecular target: T29, PRKD2 (Homo sapiens, UniProt Q9BZL6); conditions: read-out: % Retention on Solid Support
T29 construct: purchased DiscoveRx KINOMEscan
Outline: as §1

T29 sequence (Q9BZL6 whole entry): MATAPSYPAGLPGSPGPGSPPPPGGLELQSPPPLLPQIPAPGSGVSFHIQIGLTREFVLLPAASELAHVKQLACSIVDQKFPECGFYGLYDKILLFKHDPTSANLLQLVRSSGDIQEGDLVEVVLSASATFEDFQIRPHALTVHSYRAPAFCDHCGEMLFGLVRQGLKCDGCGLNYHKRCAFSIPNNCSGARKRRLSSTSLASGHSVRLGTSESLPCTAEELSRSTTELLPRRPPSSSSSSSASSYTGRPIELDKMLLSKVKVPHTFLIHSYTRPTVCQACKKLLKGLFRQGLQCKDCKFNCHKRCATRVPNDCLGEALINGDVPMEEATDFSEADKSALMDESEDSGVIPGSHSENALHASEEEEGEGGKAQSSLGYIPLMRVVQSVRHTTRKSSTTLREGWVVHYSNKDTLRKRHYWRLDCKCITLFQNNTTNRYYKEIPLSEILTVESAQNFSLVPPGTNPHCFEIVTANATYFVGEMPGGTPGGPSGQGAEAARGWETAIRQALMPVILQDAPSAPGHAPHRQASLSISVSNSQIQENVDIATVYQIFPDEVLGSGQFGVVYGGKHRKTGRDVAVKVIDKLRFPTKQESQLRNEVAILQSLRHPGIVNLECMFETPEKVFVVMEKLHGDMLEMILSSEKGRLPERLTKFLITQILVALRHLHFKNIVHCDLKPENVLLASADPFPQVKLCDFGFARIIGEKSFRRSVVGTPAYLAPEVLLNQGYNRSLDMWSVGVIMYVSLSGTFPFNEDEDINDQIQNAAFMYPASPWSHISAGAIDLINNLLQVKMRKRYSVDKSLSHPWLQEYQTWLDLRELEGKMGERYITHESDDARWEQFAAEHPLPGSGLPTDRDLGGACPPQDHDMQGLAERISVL
T18 sequence (P35916 25-1363): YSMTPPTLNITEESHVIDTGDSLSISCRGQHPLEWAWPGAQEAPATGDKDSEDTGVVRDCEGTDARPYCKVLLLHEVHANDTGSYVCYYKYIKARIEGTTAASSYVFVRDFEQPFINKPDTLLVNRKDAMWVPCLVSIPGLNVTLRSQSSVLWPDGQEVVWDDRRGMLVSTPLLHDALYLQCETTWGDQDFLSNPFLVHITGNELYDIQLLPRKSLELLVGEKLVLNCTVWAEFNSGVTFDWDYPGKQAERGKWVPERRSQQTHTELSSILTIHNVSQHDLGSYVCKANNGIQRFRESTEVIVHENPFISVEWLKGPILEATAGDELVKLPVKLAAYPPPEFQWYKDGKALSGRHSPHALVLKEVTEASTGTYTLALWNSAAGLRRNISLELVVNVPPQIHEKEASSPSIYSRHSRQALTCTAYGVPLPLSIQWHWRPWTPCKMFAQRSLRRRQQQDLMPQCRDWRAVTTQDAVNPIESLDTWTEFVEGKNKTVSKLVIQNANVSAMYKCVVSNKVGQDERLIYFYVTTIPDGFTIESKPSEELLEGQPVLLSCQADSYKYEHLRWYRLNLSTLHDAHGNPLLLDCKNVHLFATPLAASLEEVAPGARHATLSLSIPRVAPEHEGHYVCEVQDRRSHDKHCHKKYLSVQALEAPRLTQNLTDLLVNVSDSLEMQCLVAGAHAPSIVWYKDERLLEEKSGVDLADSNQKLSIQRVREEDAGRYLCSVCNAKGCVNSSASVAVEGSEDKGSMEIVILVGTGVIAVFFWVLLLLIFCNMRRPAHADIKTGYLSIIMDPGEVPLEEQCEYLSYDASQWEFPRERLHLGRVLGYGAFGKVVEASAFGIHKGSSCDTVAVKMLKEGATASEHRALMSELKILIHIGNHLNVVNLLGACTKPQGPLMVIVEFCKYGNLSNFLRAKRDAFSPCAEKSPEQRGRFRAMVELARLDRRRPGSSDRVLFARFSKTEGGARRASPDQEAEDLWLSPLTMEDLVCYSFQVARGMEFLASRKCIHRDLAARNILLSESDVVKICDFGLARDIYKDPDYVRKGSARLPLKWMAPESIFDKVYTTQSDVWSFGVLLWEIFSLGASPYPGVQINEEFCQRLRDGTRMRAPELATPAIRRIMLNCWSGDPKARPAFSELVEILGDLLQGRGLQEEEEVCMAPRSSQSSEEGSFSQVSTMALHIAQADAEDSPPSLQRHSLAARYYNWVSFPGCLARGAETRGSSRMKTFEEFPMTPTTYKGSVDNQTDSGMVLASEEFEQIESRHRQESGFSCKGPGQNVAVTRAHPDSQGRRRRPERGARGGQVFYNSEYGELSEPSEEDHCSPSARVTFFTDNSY
T24 sequence (O15111 whole entry): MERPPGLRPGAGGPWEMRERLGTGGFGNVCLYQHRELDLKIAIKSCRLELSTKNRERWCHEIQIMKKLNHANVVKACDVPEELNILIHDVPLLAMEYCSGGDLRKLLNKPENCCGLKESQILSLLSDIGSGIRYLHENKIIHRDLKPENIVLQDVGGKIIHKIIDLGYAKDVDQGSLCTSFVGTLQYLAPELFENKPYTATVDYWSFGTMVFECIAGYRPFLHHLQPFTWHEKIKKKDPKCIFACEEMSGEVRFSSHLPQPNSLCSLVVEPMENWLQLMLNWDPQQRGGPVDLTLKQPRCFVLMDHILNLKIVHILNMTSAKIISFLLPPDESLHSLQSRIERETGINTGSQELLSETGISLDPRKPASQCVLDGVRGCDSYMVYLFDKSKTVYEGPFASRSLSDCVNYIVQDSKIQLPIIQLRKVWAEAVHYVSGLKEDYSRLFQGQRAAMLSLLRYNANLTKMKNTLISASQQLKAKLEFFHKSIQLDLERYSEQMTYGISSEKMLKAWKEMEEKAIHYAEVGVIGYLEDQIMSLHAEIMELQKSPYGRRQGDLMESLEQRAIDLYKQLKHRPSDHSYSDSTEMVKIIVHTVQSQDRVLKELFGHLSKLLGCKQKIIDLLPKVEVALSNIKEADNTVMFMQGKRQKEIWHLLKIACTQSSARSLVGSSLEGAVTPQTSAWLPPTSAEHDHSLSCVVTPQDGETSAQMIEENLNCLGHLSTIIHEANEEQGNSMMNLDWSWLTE
T28 sequence (O75914 whole entry): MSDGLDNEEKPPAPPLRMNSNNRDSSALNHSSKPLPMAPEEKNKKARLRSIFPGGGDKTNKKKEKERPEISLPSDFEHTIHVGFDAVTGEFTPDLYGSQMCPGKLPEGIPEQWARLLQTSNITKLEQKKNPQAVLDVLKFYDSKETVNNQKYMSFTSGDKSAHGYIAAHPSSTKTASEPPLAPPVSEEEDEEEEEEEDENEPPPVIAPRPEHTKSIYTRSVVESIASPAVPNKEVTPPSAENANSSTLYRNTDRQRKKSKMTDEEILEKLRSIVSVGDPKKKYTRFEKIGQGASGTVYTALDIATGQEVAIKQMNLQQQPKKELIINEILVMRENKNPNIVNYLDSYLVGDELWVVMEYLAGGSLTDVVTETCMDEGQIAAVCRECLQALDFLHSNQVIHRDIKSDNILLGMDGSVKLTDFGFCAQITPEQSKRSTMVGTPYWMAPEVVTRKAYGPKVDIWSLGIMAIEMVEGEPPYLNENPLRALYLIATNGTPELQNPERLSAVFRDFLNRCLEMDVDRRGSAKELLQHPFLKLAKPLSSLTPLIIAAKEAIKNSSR
T3 sequence (O75582 1-387 limits assumed): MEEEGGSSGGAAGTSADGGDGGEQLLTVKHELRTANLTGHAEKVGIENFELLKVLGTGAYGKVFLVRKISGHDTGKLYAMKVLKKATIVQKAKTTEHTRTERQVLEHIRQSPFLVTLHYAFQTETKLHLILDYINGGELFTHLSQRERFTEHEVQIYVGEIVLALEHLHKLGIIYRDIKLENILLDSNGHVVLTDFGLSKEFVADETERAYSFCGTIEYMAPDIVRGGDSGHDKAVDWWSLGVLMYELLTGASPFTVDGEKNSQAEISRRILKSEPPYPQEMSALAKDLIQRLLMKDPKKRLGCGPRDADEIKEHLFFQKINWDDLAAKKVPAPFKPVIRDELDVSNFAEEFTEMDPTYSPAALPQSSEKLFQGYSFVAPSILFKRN
T10 sequence (Q96L34 whole entry): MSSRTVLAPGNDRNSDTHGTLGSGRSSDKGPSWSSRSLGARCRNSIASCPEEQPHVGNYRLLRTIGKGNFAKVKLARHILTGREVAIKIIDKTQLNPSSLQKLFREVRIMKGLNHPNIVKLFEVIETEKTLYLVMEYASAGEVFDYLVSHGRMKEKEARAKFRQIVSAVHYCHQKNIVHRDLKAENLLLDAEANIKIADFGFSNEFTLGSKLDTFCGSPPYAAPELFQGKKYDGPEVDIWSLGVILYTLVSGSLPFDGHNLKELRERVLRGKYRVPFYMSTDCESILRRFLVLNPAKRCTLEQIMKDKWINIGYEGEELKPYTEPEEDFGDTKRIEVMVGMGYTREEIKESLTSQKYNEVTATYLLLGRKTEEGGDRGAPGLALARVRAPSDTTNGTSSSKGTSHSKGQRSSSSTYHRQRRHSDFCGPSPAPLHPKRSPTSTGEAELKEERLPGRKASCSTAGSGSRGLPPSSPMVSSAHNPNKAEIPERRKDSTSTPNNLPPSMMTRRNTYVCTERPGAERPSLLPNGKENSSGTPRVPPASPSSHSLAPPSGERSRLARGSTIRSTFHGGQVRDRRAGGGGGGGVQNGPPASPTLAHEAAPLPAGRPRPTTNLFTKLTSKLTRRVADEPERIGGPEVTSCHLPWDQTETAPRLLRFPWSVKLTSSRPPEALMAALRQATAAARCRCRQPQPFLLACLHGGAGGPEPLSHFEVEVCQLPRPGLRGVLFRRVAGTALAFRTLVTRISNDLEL
T22 sequence (Q9P289 whole entry): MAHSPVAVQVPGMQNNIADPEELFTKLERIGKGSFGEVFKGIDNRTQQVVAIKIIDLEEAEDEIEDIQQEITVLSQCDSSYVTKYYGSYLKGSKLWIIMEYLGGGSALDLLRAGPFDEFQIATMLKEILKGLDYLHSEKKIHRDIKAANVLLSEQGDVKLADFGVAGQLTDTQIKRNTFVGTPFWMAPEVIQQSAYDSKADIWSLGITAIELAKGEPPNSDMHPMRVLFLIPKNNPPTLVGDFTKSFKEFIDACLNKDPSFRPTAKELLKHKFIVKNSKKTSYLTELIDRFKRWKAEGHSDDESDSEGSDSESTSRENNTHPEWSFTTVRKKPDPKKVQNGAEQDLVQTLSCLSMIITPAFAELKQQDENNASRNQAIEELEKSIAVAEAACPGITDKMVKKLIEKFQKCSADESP

N[C@H]1CC[C@H](Nc2cc(-c3cccc(NCc4cccc(F)c4)n3)c(Cl)cn2)CC1 [i-CDK9, N2′-(trans-4-aminocyclohexyl)-5′-chloro-N6-(3-fluorobenzyl)-2,4′-bipyridine-2′,6-diamine]
% Retention on Solid Support (ITK; 1 µM i-CDK9): 100%
% Retention on Solid Support (ITK; 10 µM i-CDK9): 86%
remaining binding at 1 µM ([1]; 1 µM i-CDK9): 100%
remaining binding at 10 µM ([1]; 10 µM i-CDK9): 91%
remaining binding at 1 µM ([2]; 1 µM i-CDK9): 79%
remaining binding at 10 µM ([2]; 10 µM i-CDK9): 100%
remaining binding at 1 µM (CSNK1A1L; 1 µM i-CDK9): 97%
remaining binding at 10 µM (CSNK1A1L; 10 µM i-CDK9): 100%
remaining binding at 1 µM (DMPK2; 1 µM i-CDK9): 100%
remaining binding at 10 µM (DMPK2; 10 µM i-CDK9): 100%
remaining binding at 1 µM (DYRK1B; 1 µM i-CDK9): 0.95%
remaining binding at 10 µM (DYRK1B; 10 µM i-CDK9): 0.7%
remaining binding at 1 µM (MAP3K15; 1 µM i-CDK9): 100%
remaining binding at 10 µM (MAP3K15; 10 µM i-CDK9): 100%
remaining binding at 1 µM (FYN; 1 µM i-CDK9): 69%
remaining binding at 10 µM (FYN; 10 µM i-CDK9): 100%
remaining binding at 1 µM (CSNK2A1; 1 µM i-CDK9): 100%
remaining binding at 10 µM (CSNK2A1; 10 µM i-CDK9): 100%
% Retention on Solid Support (MARK4; 1 µM i-CDK9): 100%
% Retention on Solid Support (MARK4; 10 µM i-CDK9): 100%
remaining binding at 1 µM (CAMK2D; 1 µM i-CDK9): 100%
remaining binding at 10 µM (CAMK2D; 10 µM i-CDK9): 100%
remaining binding at 1 µM (TNNI3K; 1 µM i-CDK9): 81%
remaining binding at 10 µM (TNNI3K; 10 µM i-CDK9): 100%
remaining binding at 1 µM [3]: 96%
remaining binding at 1 µM (ERBB4; 1 µM i-CDK9): 100%
remaining binding at 10 µM (ERBB4; 10 µM i-CDK9): 100%
remaining binding at 1 µM (MEK6; 1 µM i-CDK9): 96%
remaining binding at 10 µM (MEK6; 10 µM i-CDK9): 100%
% Retention on Solid Support (ULK1; 1 µM i-CDK9): 80%
% Retention on Solid Support (ULK1; 10 µM i-CDK9): 79%
remaining binding at 1 µM (EPHA6; 1 µM i-CDK9): 100%
remaining binding at 10 µM (EPHA6; 10 µM i-CDK9): 91%
remaining binding at 1 µM (FLT4; 1 µM i-CDK9): 68%
remaining binding at 10 µM (FLT4; 10 µM i-CDK9): 72%
remaining binding at 1 µM (PRP4; 1 µM i-CDK9): 14%
remaining binding at 10 µM (PRP4; 10 µM i-CDK9): 100%
remaining binding at 1 µM (CTK; 1 µM i-CDK9): 75%
remaining binding at 10 µM (CTK; 10 µM i-CDK9): 100%
remaining binding at 1 µM (GRK1; 1 µM i-CDK9): 95%
remaining binding at 10 µM (GRK1; 10 µM i-CDK9): 100%
remaining binding at 1 µM (MST4; 1 µM i-CDK9): 100%
remaining binding at 10 µM (MST4; 10 µM i-CDK9): 100%
% Retention on Solid Support (MET(Y1235D); 1 µM i-CDK9): 100%
% Retention on Solid Support (MET(Y1235D); 10 µM i-CDK9): 11%
remaining binding at 1 µM (IKK-alpha; 1 µM i-CDK9): 85%
remaining binding at 10 µM (IKK-alpha; 10 µM i-CDK9): 71%
remaining binding at 1 µM (BMX; 1 µM i-CDK9): 96%
remaining binding at 10 µM (BMX; 10 µM i-CDK9): 81%
% Retention on Solid Support ([4]; 1 µM i-CDK9): 53%
% Retention on Solid Support ([4]; 10 µM i-CDK9): 51%
remaining binding at 1 µM (ULK2; 1 µM i-CDK9): 100%
remaining binding at 10 µM (ULK2; 10 µM i-CDK9): 100%
remaining binding at 1 µM (PAK3; 1 µM i-CDK9): 100%
remaining binding at 10 µM (PAK3; 10 µM i-CDK9): 98%
remaining binding at 1 µM (PRKD2; 1 µM i-CDK9): 88%
remaining binding at 10 µM (PRKD2; 10 µM i-CDK9): 47%
